Experimental findings from patent US20220388964A1 (HiberCell, Inc., priority 2019, published 2022) are described below.

GCN2, sequence (Q9P2K8 whole entry): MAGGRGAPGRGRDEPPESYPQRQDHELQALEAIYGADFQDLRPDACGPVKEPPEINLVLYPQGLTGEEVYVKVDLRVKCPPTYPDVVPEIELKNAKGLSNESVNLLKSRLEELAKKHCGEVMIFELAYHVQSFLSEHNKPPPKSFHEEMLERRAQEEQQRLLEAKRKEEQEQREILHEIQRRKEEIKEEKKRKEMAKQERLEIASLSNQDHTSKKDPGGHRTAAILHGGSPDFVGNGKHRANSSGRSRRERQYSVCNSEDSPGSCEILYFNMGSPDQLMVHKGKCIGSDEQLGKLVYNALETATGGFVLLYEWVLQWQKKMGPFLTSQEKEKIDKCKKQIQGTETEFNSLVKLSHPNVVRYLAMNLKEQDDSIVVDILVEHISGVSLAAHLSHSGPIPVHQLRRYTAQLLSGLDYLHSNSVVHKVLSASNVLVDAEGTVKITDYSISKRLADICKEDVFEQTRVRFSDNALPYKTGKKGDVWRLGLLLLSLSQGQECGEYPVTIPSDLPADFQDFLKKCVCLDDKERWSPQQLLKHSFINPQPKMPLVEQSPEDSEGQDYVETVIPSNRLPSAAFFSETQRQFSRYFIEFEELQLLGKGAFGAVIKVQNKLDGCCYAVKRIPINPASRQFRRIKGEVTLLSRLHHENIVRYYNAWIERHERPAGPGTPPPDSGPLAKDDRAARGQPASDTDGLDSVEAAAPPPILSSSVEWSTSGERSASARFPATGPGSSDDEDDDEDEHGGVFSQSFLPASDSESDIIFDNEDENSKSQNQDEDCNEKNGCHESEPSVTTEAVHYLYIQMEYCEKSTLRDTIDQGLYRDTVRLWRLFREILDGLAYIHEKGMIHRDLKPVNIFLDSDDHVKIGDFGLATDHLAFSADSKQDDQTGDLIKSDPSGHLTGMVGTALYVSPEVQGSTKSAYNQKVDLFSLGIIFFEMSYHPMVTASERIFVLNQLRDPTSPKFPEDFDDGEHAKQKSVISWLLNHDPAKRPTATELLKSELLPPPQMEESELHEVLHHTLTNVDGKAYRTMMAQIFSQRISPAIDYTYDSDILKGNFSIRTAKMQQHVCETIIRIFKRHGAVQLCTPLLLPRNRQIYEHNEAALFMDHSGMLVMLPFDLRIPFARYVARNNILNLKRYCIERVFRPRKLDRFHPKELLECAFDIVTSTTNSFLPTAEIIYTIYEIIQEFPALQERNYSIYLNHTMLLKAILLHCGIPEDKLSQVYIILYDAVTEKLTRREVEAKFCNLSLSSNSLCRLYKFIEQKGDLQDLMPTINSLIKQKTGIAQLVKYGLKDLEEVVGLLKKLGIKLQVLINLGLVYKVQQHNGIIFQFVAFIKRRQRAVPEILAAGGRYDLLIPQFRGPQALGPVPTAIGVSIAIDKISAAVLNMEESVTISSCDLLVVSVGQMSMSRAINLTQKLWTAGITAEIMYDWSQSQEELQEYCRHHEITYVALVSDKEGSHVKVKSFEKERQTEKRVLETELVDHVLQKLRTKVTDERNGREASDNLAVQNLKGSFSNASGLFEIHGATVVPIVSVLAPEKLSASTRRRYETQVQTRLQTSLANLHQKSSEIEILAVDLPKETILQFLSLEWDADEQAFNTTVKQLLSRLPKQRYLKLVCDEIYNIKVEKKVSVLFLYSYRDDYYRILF

This experiment addresses GCN2 (Homo sapiens, UniProt Q9P2K8). The experiment in a line: TR-FRET biochemical assay for inhibition of GCN2 (Example 106, for Example 1-4BB). As to conditions: Table 9. (Time-resolved FRET reads energy transfer from a long-lived donor to a nearby acceptor.)
One may read the IC50 as the concentration that gives 50% inhibition. Low values mean inhibition by little substance, high ones a need for much substance. Regarding `COc1ncc(F)cc1S(=O)(=O)Nc1cccc(-c2ccc3c(C(=O)NCC[C@@H](O)CO)n[nH]c3c2F)c1F` [Example 3BH, 6-(2-fluoro-3-((5-fluoro-2-methoxypyridine)-3-sulfonamido)phenyl)-N-((R)-3,4-dihydroxybutyl)-7-fluoro-1H-indazole-3-carboxamide], the IC50 lay in the range of 500 to 2500 nM.

Regarding `COc1ncccc1S(=O)(=O)Nc1ccc(F)c(-c2ccc3c(C(=O)NCCCO)n[nH]c3c2F)c1F` [Example 3BI, 6-(2,6-difluoro-3-((2-methoxypyridine)-3-sulfonamido)phenyl)-7-fluoro-N-(3-hydroxypropyl)-1H-indazole-3-carboxamide], the IC50 was in the range of 500 to 2500 nM.

`COc1ncccc1S(=O)(=O)Nc1ccc(F)c(-c2ccc3c(C(N)=O)n[nH]c3c2F)c1F` [Example 3BJ, 6-(2,6-difluoro-3-((2-methoxypyridine)-3-sulfonamido)phenyl)-7-fluoro-1H-indazole-3-carboxamide]: the 50% inhibitory concentration (IC50) was 500 to 2500 nM.

Consider `COc1ncc(F)cc1S(=O)(=O)Nc1cc(F)cc(-c2ccc3c(C(=O)NCCCN(C)C)n[nH]c3c2F)c1F` [Example 3BK, 6-(3-((5-fluoro-2-methoxy-pyridine)-3-sulfonamido)-2,5-difluorophenyl)-N-(3-(dimethylamino)propyl)-7-fluoro-1H-indazole-3-carboxamide], for which the half-maximal inhibitory concentration (IC50) is less than 500 nM.

The compound `COc1ncc(Cl)cc1S(=O)(=O)Nc1cc(F)cc(-c2ccc3c(C(=O)N[C@@H]4CCN(C)C4)n[nH]c3c2F)c1F` [Example 3BL, 6-(3-((5-chloro-2-methoxy-pyridine)-3-sulfonamido)-2,5-difluorophenyl)-7-fluoro-N-((R)-1-methylpyrrolidin-3-yl)-1H-indazole-3-carboxamide] returned an IC50 of less than 500 nM.

`COc1ncc(Cl)cc1S(=O)(=O)Nc1cc(F)cc(-c2ccc3c(C(=O)N[C@H]4CCN(C)C4)n[nH]c3c2F)c1F` [Example 3BM, 6-(3-((5-chloro-2-methoxy-pyridine)-3-sulfonamido)-2,5-difluorophenyl)-7-fluoro-N-((S)-1-methylpyrrolidin-3-yl)-1H-indazole-3-carboxamide] yielded a half-inhibitory concentration (IC50) of less than 500 nM.

Turning to `COc1ncc(F)cc1S(=O)(=O)Nc1ccc(F)c(-c2ccc3c(C(=O)Nc4cnoc4)n[nH]c3c2F)c1F` [Example 3BN, 6-(2,6-difluoro-3-((5-fluoro-2-methoxypyridine)-3-sulfonamido)phenyl)-7-fluoro-N-(isoxazol-4-yl)-1H-indazole-3-carboxamide], the IC50 was less than 500 nM.

As to `COc1ncc(F)cc1S(=O)(=O)Nc1ccc(F)c(-c2ccc3c(C(=O)Nc4cn[nH]c4)n[nH]c3c2F)c1F` [Example 3BO, 6-(2,6-difluoro-3-((5-fluoro-2-methoxypyridine)-3-sulfonamido)phenyl)-7-fluoro-N-(1H-pyrazol-4-yl)-1H-indazole-3-carboxamide], the concentration for half-maximal inhibition (IC50) is less than 500 nM.

With `COc1ncc(F)cc1S(=O)(=O)Nc1ccc(F)c(-c2ccc3c(C(=O)Nc4ccc(=O)n(C)c4)n[nH]c3c2F)c1F` [Example 3BP, 6-(2,6-difluoro-3-((5-fluoro-2-methoxypyridine)-3-sulfonamido)phenyl)-7-fluoro-N-(1-methyl-6-oxo-1,6-dihydropyridin-3-yl)-1H-indazole-3-carboxamide], the IC50 is less than 500 nM.

`COc1ncc(Cl)cc1S(=O)(=O)Nc1ccc(F)c(-c2ccc3c(C(=O)Nc4cnn(C)c4)n[nH]c3c2F)c1F` [Example 3BQ, 6-(3-((5-chloro-2-methoxy-pyridine)-3-sulfonamido)-2,6-difluorophenyl)-7-fluoro-N-(1-methyl-1H-pyrazol-4-yl)-1H-indazole-3-carboxamide] yielded a concentration for half-maximal inhibition (IC50) of 500 to 2500 nM.

`COc1ncc(F)cc1S(=O)(=O)Nc1ccc(C#N)c(-c2ccc3c(C(N)=O)n[nH]c3c2F)c1F` [Example 3BR, 6-(6-cyano-2-fluoro-3-((5-fluoro-2-methoxypyridine)-3-sulfonamido)phenyl)-7-fluoro-1H-indazole-3-carboxamide] had an IC50 of 500 to 2500 nM.

In turn, `COc1ncc(F)cc1S(=O)(=O)Nc1cc(F)cc(-c2ccc3c(C(=O)N[C@@H]4CCN(C)C4)n[nH]c3c2F)c1F` [Example 3BS, 6-(3-((5-fluoro-2-methoxy-pyridine)-3-sulfonamido)-2,5-difluorophenyl)-7-fluoro-N-((R)-1-methylpyrrolidin-3-yl)-1H-indazole-3-carboxamide] had an IC50 of less than 500 nM.

`COc1ncc(F)cc1S(=O)(=O)Nc1cc(F)cc(-c2ccc3c(C(=O)N[C@H]4CCN(C)C4)n[nH]c3c2F)c1F` [Example 3BT, 6-(3-((5-fluoro-2-methoxy-pyridine)-3-sulfonamido)-2,5-difluorophenyl)-7-fluoro-N-((S)-1-methylpyrrolidin-3-yl)-1H-indazole-3-carboxamide] showed an IC50 of 500 to 2500 nM.

For the compound `COc1ncc(C#N)cc1S(=O)(=O)Nc1ccc(F)c(-c2ccc3c(C(=O)NCCCN(C)C)n[nH]c3c2F)c1F` [Example 3BU, 6-(3-((5-cyano-2-methoxy-pyridine)-3-sulfonamido)-2,6-difluorophenyl)-N-(3-(dimethylamino)propyl)-7-fluoro-1H-indazole-3-carboxamide], the IC50 was in the range of 500 to 2500 nM.

On to `COc1ncc(C#N)cc1S(=O)(=O)Nc1cc(F)cc(-c2ccc3c(-c4ncc[nH]4)n[nH]c3c2F)c1F` [Example 3BV, 5-cyano-N-(2,5-difluoro-3-(7-fluoro-3-(1H-imidazol-2-yl)-1H-indazol-6-yl)phenyl)-2-methoxypyridine-3-sulfonamide], for which the IC50 was less than 500 nM.

Take `COc1ncc(F)cc1S(=O)(=O)Nc1ccc(F)c(-c2ccc3c(C(=O)Nc4cccn(C)c4=O)n[nH]c3c2F)c1F` [Example 3BW, 6-(2,6-difluoro-3-((5-fluoro-2-methoxypyridine)-3-sulfonamido)phenyl)-7-fluoro-N-(1-methyl-2-oxo-1,2-dihydropyridin-3-yl)-1H-indazole-3-carboxamide]: the IC50 is 2500 to 10000 nM.

With `COc1ncc(F)cc1S(=O)(=O)Nc1ccc(F)c(-c2ccc3c(C(=O)Nc4ccc(C)nc4)n[nH]c3c2F)c1F` [Example 3BX, 6-(2,6-difluoro-3-((5-fluoro-2-methoxypyridine)-3-sulfonamido)phenyl)-7-fluoro-N-(6-methylpyridin-3-yl)-1H-indazole-3-carboxamide], the IC50 is less than 500 nM.

The compound `Cc1nc(C)c(S(=O)(=O)Nc2cc(F)cc(-c3ccc4c(-c5ncc[nH]5)n[nH]c4c3F)c2F)s1` [Example 3BY, N-(2,5-difluoro-3-(7-fluoro-3-(1H-imidazol-2-yl)-1H-indazol-6-yl)phenyl)-2,4-dimethylthiazole-5-sulfonamide] registered an IC50 of less than 500 nM.

In the case of `COc1nscc1S(=O)(=O)Nc1cc(F)cc(-c2ccc3c(-c4ncc[nH]4)n[nH]c3c2F)c1F` [Example 3BZ, N-(2,5-difluoro-3-(7-fluoro-3-(1H-imidazol-2-yl)-1H-indazol-6-yl)phenyl)-3-methoxyisothiazole-4-sulfonamide], the IC50 was less than 500 nM.

`COc1ncc(Cl)cc1S(=O)(=O)Nc1cc(F)cc(-c2ccc3c(-c4ncc[nH]4)n[nH]c3c2F)c1F` [Example 3C, 5-chloro-N-(2,5-difluoro-3-(7-fluoro-3-(1H-imidazol-2-yl)-1H-indazol-6-yl)phenyl)-2-methoxypyridine-3-sulfonamide] registered an IC50 of less than 500 nM.

Compound `COc1ncc(F)cc1S(=O)(=O)Nc1ccc(C#N)c(-c2ccc3c(C(=O)NCCCO)n[nH]c3c2F)c1F` [Example 3CA, 6-(6-cyano-2-fluoro-3-((5-fluoro-2-methoxypyridine)-3-sulfonamido)phenyl)-7-fluoro-N-(3-hydroxypropyl)-1H-indazole-3-carboxamide] returned an IC50 of less than 500 nM.

`COc1ncc(F)cc1S(=O)(=O)Nc1cc(C#N)cc(-c2ccc3c(-c4ncc[nH]4)n[nH]c3c2F)c1F` [Example 3CB, N-(5-cyano-2-fluoro-3-(7-fluoro-3-(1H-imidazol-2-yl)-1H-indazol-6-yl)phenyl)-5-fluoro-2-methoxypyridine-3-sulfonamide] displayed an IC50 greater than 10000 nM.

The compound `Cc1ncc(F)cc1S(=O)(=O)Nc1cc(C#N)cc(-c2ccc3c(-c4ncc[nH]4)n[nH]c3c2F)c1F` [Example 3CC, N-(5-cyano-2-fluoro-3-(7-fluoro-3-(1H-imidazol-2-yl)-1H-indazol-6-yl)phenyl)-5-fluoro-2-methylpyridine-3-sulfonamide] displayed an IC50 greater than 10000 nM.

In the case of `Cc1ncc(F)cc1S(=O)(=O)Nc1cc(F)cc(-c2ccc3c(C(=O)NCCCN(C)C)n[nH]c3c2F)c1F` [Example 3CD, 6-(2,5-difluoro-3-((5-fluoro-2-methylpyridine)-3-sulfonamido)phenyl)-N-(3-(dimethylamino)propyl)-7-fluoro-1H-indazole-3-carboxamide], the IC50 was less than 500 nM.

For `COc1ncc(C#N)cc1S(=O)(=O)Nc1cc(F)cc(-c2ccc3c(C(=O)NCCCN(C)C)n[nH]c3c2F)c1F` [Example 3CE, 6-(3-((5-cyano-2-methoxy-pyridine)-3-sulfonamido)-2,5-difluorophenyl)-N-(3-(dimethylamino)propyl)-7-fluoro-1H-indazole-3-carboxamide], the half-maximal inhibitory concentration (IC50) was greater than 10000 nM.

Turning to `COc1ncc(Cl)cc1S(=O)(=O)Nc1cc(F)cc(-c2ccc3c(C(N)=O)n[nH]c3c2F)c1F` [Example 3CF, 6-(3-((5-chloro-2-methoxy-pyridine)-3-sulfonamido)-2,5-difluorophenyl)-7-fluoro-1H-indazole-3-carboxamide], the IC50 was less than 500 nM.

For `Cc1ncc(F)cc1S(=O)(=O)Nc1cc(F)cc(-c2ccc3c(C(N)=O)n[nH]c3c2F)c1F` [Example 3CG, 6-(2,5-difluoro-3-((5-fluoro-2-methylpyridine)-3-sulfon-amido)phenyl)-7-fluoro-1H-indazole-3-carboxamide], the IC50 was less than 500 nM.

Consider `O=S(=O)(Nc1ccc(F)c(-c2ccc3c(-c4ncc[nH]4)n[nH]c3c2F)c1F)c1cc(F)cc(CO)c1Cl` [Example 3CH, 2-chloro-N-(2,4-difluoro-3-(7-fluoro-3-(1H-imidazol-2-yl)-1H-indazol-6-yl)phenyl)-5-fluoro-3-(hydroxymethyl)-benzenesulfonamide], for which the IC50 was less than 500 nM.
